Series [1] is described as follows: physchem. The format is physicochemical. The procedure:
To validate the method of test agent recovery from the skin, solutions (1.0 mg/mL) of each vitamin D analogue were prepared in 100% PG. The precise concentrations in these samples were analysed by HPLC method described above. To assess the chemical stability of each test agent in the donor solutions used in the Franz cell experiments, 1.0 mg/mL of the samples prepared in 100% PG were incubated in a water bath at 37° C. for 24 h. In addition, to understand the chemical stability of each test agent in the extraction solvents used in the skin deposition studies, 1 mL of the drug sample in 100% PG was added into 10 mL of extraction fluid (MeOH for cholecalciferol, cholecalciferol phosphate acid, and MeOH:water, 90:10 for cholecalciferol phosphate disodium salt). Samples in PG (n=3) and samples in PG with the extraction fluid (n=3) were left in the water bath overnight at 37° C. and the sample concentration was analysed by the HPLC method described above. To assess whether the HPLC fluid had been impacted by any proteins that had leaked out of the skin, PG:water, 80:20 was added to donor and receiver chambers of porcine skin loaded Franz cells (n=3). A 5 mL sample of the receiver fluid was collected, and 25 μL of each test solution was added to this fluid and diluted to MeOH (1:1) and analysed by the HPLC method described previously. To verify the percentage of drug that could be recovered from the skin tissue, the skin sections were dermatomed (1 mm thickness) (n=3). The test solutions were spiked (50 μL) into a sample bottle containing the chopped dermatomed skin tissue. The samples containing the spiked drugs were left for 1 h for the drugs to absorb into the tissues. After the 1 h incubation period, 5 mL of extraction fluid (MeOH for cholecalciferol, cholecalciferol phosphate acid, and MeOH:water, 90:10 for cholecalciferol phosphate disodium salt) was added into each piece of the dermatomed skin tissue, then incubated in a shaking water bath for 1 h. The solutions were then tissue lysed by a tissue lyser for 40 min and homogenised by Ultra Turrax for 1 min and filtered using 0.45 μm syringe filters, centrifuged for 10 min at 13,000 rpm, and analysed by the HPLC method described above. In terms of cholecalciferol phosphate acid, after 1 h incubation and adding 5 mL extraction fluid, immediately the solutions with skin tissues were tissue lysed by a tissue lyser for 15 min. The solutions were then centrifuged for 10 min at 13,000 rpm and the supernatants were analysed by the HPLC method described above.

The nature of series [2]: skin permeation and deposition, automated Franz diffusion cell (Example 5). Type of series: in vitro ADME. The settings on record: PG formulation. The procedure: For the final formulation, 61.5 mg of cholecalciferol phosphate acid in 4.1 mL hexane was added into 1.435 mL DURO-TAK 87-2051 (51.5 w/v %) with 16.4 μL α-tocopherol and 20.5 μL diethylene glycol monoethyl ether. Likewise, 120 mg of cholecalciferol phosphate disodium salt in 35.2 mL MeOH:water (10:1) was added to 1.336 mL of DURO-TAK 87-2051 (51.5 w/v %) in 56 mL ethyl acetate with 32 mg of α-tocopherol and 48 μL diethylene glycol monoethyl ether. Each formulation was spread evenly on the 10×10 cm patch tray and left overnight to dry completely. Following the complete drying of the solvents, the adhesive layer was covered by the M3 Release layer (SCOTCHPAK 9755, UK), compressed, and then cut using a 34 mm circular manual die cutter (SCP Super Cutting Press, UK).
Subsequently, 1 mL aliquots were applied to the skin.
The automated Franz diffusion cell was used to investigate the permeation of cholecalciferol, cholecalciferol phosphate salt and cholecalciferol phosphate acid through porcine skin. Fresh white adult porcine ears were obtained from a local butcher (Ginger Pig, UK). Any damaged ears were discarded. The ears were removed from the carcass after hair removal. […] The collected receiver fluid was analysed by HPLC methods described previously.
At the end of the transport studies, the Franz cells were dismantled, and the donor solution was collected into bottles containing 10 mL of extraction fluid; MeOH for cholecalciferol, cholecalciferol phosphate acid and MeOH:water (90:10) for cholecalciferol phosphate salt, by wiping the surface of the skin and the inside of the donor compartment with two wet and then two dry cotton buds. […] Each collection was analysed by the HPLC method described above. Thus, the amount of each test agent on the surface of the skin, deposited in the skin, and passed into the receiver fluid was determined so that % mass recovery per cm^2 per skin could be calculated and drug deposition profiles could be obtained.

Series [3] can be described thus: physchem. Type of series: physicochemical. The settings on record: for % Recovery, chemical stability with extraction fluid: 0.091 mg/mL; for recovery at 0.091 mg/mL: chemical stability with extraction fluid. The procedure: To validate the method of test agent recovery from the skin, solutions (1.0 mg/mL) of cholecalciferol phosphate were prepared in 100% PG and 100% water and the same concentration of cholecalciferol was prepared in 100% PG and PG:EtOH (50:50). The precise concentrations in these samples were analysed by HPLC using the method described above.
To assess the chemical stability of cholecalciferol and cholecalciferol phosphate in the donor solutions used in the Franz cell experiments, the 1.0 mg/mL of the samples prepared in the different solvents were incubated in a water bath at 37° C. for 24 h. In addition, to understand the chemical stability of cholecalciferol and cholecalciferol phosphate in the extraction solvents used in the skin deposition studies, a 1 mL of the sample of the drug in the different solvents was added into 10 mL of extraction fluid (PG:EtOH, 50:50 for cholecalciferol and MeOH:water, 90:10 for cholecalciferol phosphate). Samples with the extraction fluid were left in the water bath overnight at 37° C. and the sample concentration was analysed by HPLC method described above.

Series [4] can be described thus: solubility in donor solution and thermodynamic activity (Table 4). The format is physicochemical. The settings on record: for solubility: organic solvent or mixture, thermodynamic from solid; for Thermodynamic activity: proposed concentration in permeation studies relative to solubility.

Results on two compounds are retold here after US12473310B2, “Vitamin D3 phosphate and pharmaceutically acceptable salts thereof, pharmaceutical compositions comprising the compound and methods for preparing the compound” (King's College London, priority 2020, dated 2025).

Each structure is given as a SMILES string. Values after ≈ are worked out from the molar mass of the structure shown. Counter-ions that a name gives are not always drawn. Like-named read-outs stand apart in the source and are kept apart here.

A word on the solubility: it is the concentration that dissolves in the medium under given conditions. Regarding `C=C1CC[C@H](OP(=O)(O)O)C/C1=C/C=C1\CCC[C@@]2(C)C1CC[C@@H]2[C@H](C)CCCC(C)C` (stereo partly shown) [Cholecalciferol phosphate disodium salt, cholecalciferol phosphate disodium salt], the entries for the “% Recovery, chemical stability with extraction fluid” value in series [1] (0.091 mg/mL) and in series [3] were 95.18 ± 4.82% and 76.01 ± 1.42%, respectively. Further, in series [1] (24 h, 1 mg/mL), the “% Recovery, chemical stability without extraction fluid” value is reported as 81.87 ± 2.46%. The “fold higher transdermal permeation through the skin compared to cholecalciferol” value in series [2] (phosphate disodium salt) was around 35.02 fold. The degradation in series [3] (24 h, 1 mg/mL) came to 20%. Further, the recovery at 0.091 mg/mL in series [3] (% Recovery) came out at 95.2 ± 5.88%. The solubility in series [4] (PG, read-out: Solubility in PG) was 2500 µg/mL. In series [4], this compound displayed a Thermodynamic activity of 1.0.

In series [1], `C=C1CC[C@H](O)C/C1=C/C=C1\CCC[C@]2(C)[C@@H]([C@H](C)CCCC(C)C)CC[C@@H]12` [Cholecalciferol, cholecalciferol, reference compound] yielded a recovery at 0.091 mg/mL of 91.97 ± 0.63% and a recovery at 24 h, 1 mg/mL of 77.5 ± 7.05%. In addition, the “transdermal permeation through the skin” value in series [2] (1.0 mm porcine skin, 24 h) is 1,245.2 IU. In addition, the “% Recovery, chemical stability with extraction fluid” value in series [3] is 90.52 ± 0.42%. In series [3] (% Recovery), this compound displayed a recovery at 0.091 mg/mL of 91.76 ± 0.87%. Further, the recovery at 24 h, 1 mg/mL in series [3] (% Recovery, chemical stability without extraction fluid) was determined as 90%. In addition, in series [4], the solubility was found to be 3150 µg/mL (≈ 8.19 mM) and the Thermodynamic activity amounted to 0.8.
